Experiments:
[1] = system: Hairless albino Sh:HR-1 mice; assay: Contact hypersensitivity (CHS) reaction to oxazolone after UV irradiation, Example 2; assay type: in vivo, mouse; settings: for % Suppression of CHS: UV-irradiated vs non-UV group, lotion 20 μM compound (glucan 10% w/w in lotion B; clover extract 0.5% w/w), topical after each daily UV; for prevention/amelioration of UV induced immunosuppression (in words): topical lotion after UV, CHS model
Source text: O'Dell et al (1980 Arch. Dermatol, 116, 559-561) have shown that sun-exposed skin areas on humans are immunologically impaired according to non-exposed skin. A standard model for testing immunosuppression, that is a model with reference to human immunosuppression, is the hairless mouse. A standard test in the hairless mouse model is the contact hypersensitivity (CHS) reaction to an immune irritant such as oxazolone (Asherson and Ptak, Immunology, (1968) 15:405-416). The compound oxazolone induces a vigorous immune response in the hairless mouse which may be measured by ear swelling. Immune suppression by UV light or other agents can be readily tested in the model. See for example Kondo, S, McKenzie, R. C., Sauder, D. N., J. Invest. Dermatol., 103:811-814; Reeve et al, Cancer Letts., 108:271-279 (1996); and Reeve et al, J. Invest. Dermatol., 103:801-806 (1994). As will be shown in the non-limiting examples which follow, compositions comprising compounds of the Formula (I) were active in the treatment/prevention/amelioration of UV induced immunosuppression in the hairless mouse model, which as discussed above is directly referable to the situation in human skin, for example, Yoshikawa et al, J. Invest. Dermatol., 95:530-536, (1990).
The CHS reaction in mice is a standard model for immunosuppression and is a representative model for human immunosuppression (Yoshikawa et al, Invest. Dermatol., 95:530-536 (1990)).
(§1) The CHS reaction was carried out according to the protocol of Reeve et al, Immunology, 78:99-104 (1993). Hairless albino Sh:HR-1 mice were divided into two treatment groups. The first treatment group designated group 1 was not subject to UV irradiation, and received either 0.2 ml of test lotion “A” or test lotion ‘B’ painted on to the dorsal skin on four consecutive days (that is, 4 μmol/mouse, or approximately 0.1 μmol/cm^2). The second treatment group, group 2, were UV irradiated with a minimal erythemal dose of UV light which simulates the toxic effect of sunlight on the skin. After each daily UV treatment 0.2 ml of treatment solution was applied to the dorsal skin as for treatment group 1. Mid-dorsal skinfold thickness was measured every twenty four hours to indicate erythema oedema. CHS to oxazolone was induced on abdominal skin seven days after the first treatment followed by challenge on the ears on day 15, and average ear swelling was determined as a measure of immune response.
Genistein, daidzein, equol, tetrahydrodaidzein, ODMA, dehydroequol and clover extract were tested in this experiment in test lotion “A”. Equol, genistein and clover extract were also tested in tes lotion ‘B’. The results expressed below are given as a percentage of suppression of CHS measured with reference to the non-UV exposed treatment group 1, which is induced by UV exposure.

[2] = system: Hairless albino Sh:HR-1 mice; assay: Mid-dorsal skinfold thickness (erythema/oedema) after UV irradiation, Example 2; assay type: in vivo, mouse; settings: for negative average skin fold increase / average skin fold increase: seven days after treatment; for negative average skin fold increase: given as a negative increase, substantially no increase in skin fold thickness; for erythema/oedema (in words): measured at day four and day seven; for average skin fold increase: one unit = 0.001 in, test lotion A
Method: as §1
Erythema/oedema was measured at day four and day seven of the treatment groups. […] For example, at seven days after treatment for base lotion “A” average skin fold thickness was six units (that is 0.006 in), for the daidzein containing lotion average skin fold increase was seven units, and for tetrahydrodaidzein average skin fold thickness was five units. In contrast, for equol, genistein, dehydroequol and ODMA there was a negative average skin fold increase of approximately 0.2, which corresponds to substantially no increase in skin fold thickness.

[3] = system: Hairless albino Sh:HR-1 mice; assay: CHS reaction to oxazolone after UVB irradiation, equol/glucan lotions, Example 4; assay type: in vivo, mouse; settings: for % Suppression of CHS: 1 MED (UVB) for 3 days, equol 2.5 uM, glucan 20% in base lotion, ears measured day 15; for decreasing percentage suppression of hypersensitivity and skin fold thickness (in words): compared to the control groups
Method: The CHS reaction was carried out as in Example 2. Hairless albino Sh:HR-1 mice were divided into eight treatment groups as shown: • 1. base lotion+MED (UVB) for […] • 2. glucan (20%) in base lotion+1 MED (UVB) for 3 days • 3. Equol (2.5 uM) in base lotion+1 MED (UVB) for 3 days • 4. Equol (2.5 uM)+glucan (20%) in base lotion+1 MED (UVB) for 3 days • 5. base lotion and no irradiation for three days (Control) • 6. glucan (20%) in base lotion and no irradiation for three days (Control) • 7. Equol (2.5 uM) in base lotion and no irradiation for three days (Control) • 8. Equol (2.5 uM)+glucan (20%) in base lotion and no irradiation for three days (Control)
On days 7 and 8 the mice were sensitised with 2% oxazolone in alcohol (100 ul/mouse). On day 14, the ears were challenged with 2% oxazolone (20 ul/mouse). On day 15, the ears were measured for skin fold thickness and suppression of […] hypersensitivity.

Human subjects = assay: Erythema intensity at UV-irradiated skin sites on the back, post-UV topical lotion, Example 3; assay type: in vivo; settings: UV + lotion with 100 μM equol
Method: Tests were performed at the Australian Photobiology Testing Facility at the University of Sydney. Human subjects were tested in a controlled solarium. A grid was established using reference coordinate points on the back of each subject, thereby providing a series of treatment sites on the back of each patient where the erythema-reducing potential of compositions according to the invention could be tested.
Compounds of the Formula (I) were dissolved in DMSO and incorporated into base lotion “A” to contain 100 μM of active ingredient, and 0.5% DMSO.
Topical applications were made to the back of the patient within the treatment grid which was established to provide a series of sites for UV irradiation, and subsequent application of compositions. Topical application consisted of 2 mg/cm^2 lotion applied firmly, followed by a second 2 mg/cm^2 applied but not rubbed in. Each topical treatment was therefore 0.4 nmols/cm^2 compound in the Formula (I).
The treatment procedure was as follows. On the first day of treatment a minimum erythemal dose of UV (MED) was established for each subject, this being the minimum degree of UV light which on visual determination produces a reddening of the skin. […] The first treatment day was a Monday. Subsequent treatments were as follows:
Expose 3×3 skin sites to 0.75 MED UV.
Immediately, at four hours and at six hours post-UV, • 1 apply nil to three sites • 2 apply topical base lotion to three sites • 3 apply topical equol lotion to three sites according to technique above. Wednesday
Assess erythema (none visible as expected).
Re-expose same 3×3 skin sites to 0.75 MED UV.
Immediately, at four hours and at six hours post-UV, apply topical lotions as above.
Assess erythema visually by ranking the colour intensity of the 3×3 skin sites.
Re-expose same 3×3 skin sites to one MED UV.
Topical applications as before

| Molecule | % Suppression of CHS ([1]; 18 hours of ear challenge) [%] | % Suppression of CHS ([1]; 21 hours of ear challenge) [%] | prevention/amelioration of UV induced immunosuppression (in words) [1] | negative average skin fold increase [2] | other results |
| --- | --- | --- | --- | --- | --- |
| Oc1ccc(C2=Cc3ccc(O)cc3OC2)cc1 [dehydroequol] | 10 | 4 | significant activity | approximately 0.2 | – |
| Oc1ccc([C@H]2COc3cc(O)ccc3C2)cc1 [Equol, equol] | 12 | 5 | significant activity | approximately 0.2 | % Suppression of CHS [3]: 6%; decreasing percentage suppression of hypersensitivity and skin fold thickness (in words) [3]: effective; Average erythema intensity (n = 3) (Human subjects; 48 hours, 0.4 nmols/cm^2 per application): 0.21; Average erythema intensity (n = 3) (Human subjects; 52 hours): 0.21; Average erythema intensity (n = 3) (Human subjects; 55.5 hours): 0.67; Average erythema intensity (n = 3) (Human subjects; 71 hours): 0.67; Average erythema intensity (n = 3) (Human subjects; 75 hours): 0.38; Average erythema intensity (n = 3) (Human subjects; 77 hours): 0.54; erythema/oedema (in words) [2]: suppressed erythema/oedema |
| O=c1c(-c2ccc(O)cc2)coc2cc(O)cc(O)c12 [Genistein, genistein] | 14 | 13 | significant activity | approximately 0.2 | erythema/oedema (in words) [2]: suppressed erythema/oedema |
| Oc1ccc(C2COc3cc(O)ccc3C2O)cc1 (stereo not drawn) [tetrahydrodaidzein] | 33 | 31 | did not ameliorate | – | average skin fold increase [2]: five |
| O=c1c(-c2ccc(O)cc2)coc2cc(O)ccc12 [Daidzein, daidzein] | 27 | 37 | did not ameliorate | – | average skin fold increase [2]: seven |
| CC(C(=O)c1ccc(O)cc1O)c1ccc(O)cc1 (stereo not drawn) [ODMA, O-desmethyl-angolensin] | – | – | – | approximately 0.2 | – |
| β-(1,3)(1,6)-glucan [Glucan only] | – | – | – | – | % Suppression of CHS [3]: 4.5%; decreasing percentage suppression of hypersensitivity and skin fold thickness (in words) [3]: effective |

From patent US20050036962A1, “Compositions and method for protecting skin from UV induced immunosuppression and skin damage” (Novogen Research Pty. Ltd., priority 1997, published 2005)
